Assay results reported in PubChem BioAssay (NCI).
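Compound exposure: 48 hours, 5 concentrations, 96-well plates. The concentration for 50% growth inhibition is given as GI50. TGI: concentration producing complete growth inhibition.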

Assays:
Assay in all cases: NCI anticancer screen, dose series, 48 h
SW-620 colon = tested on: SW-620 colon
HCT-116 colon = tested on: HCT-116 colon
KM12 colon = tested on: KM12 colon
SK-MEL-2 melanoma = tested on: SK-MEL-2 melanoma
M14 melanoma = tested on: M14 melanoma
NCI/ADR-RES ovarian = tested on: NCI/ADR-RES ovarian
SR leukemia = tested on: SR leukemia
SF-295 CNS = tested on: SF-295 CNS
RXF 393 renal = tested on: RXF 393 renal
BT-549 breast = tested on: BT-549 breast

SMILES | TGI (SW-620 colon) [µM] | TGI (HCT-116 colon) [µM] | TGI (KM12 colon) [µM] | TGI (SK-MEL-2 melanoma) [µM] | TGI (M14 melanoma) [µM] | TGI (NCI/ADR-RES ovarian) [µM] | TGI (SR leukemia) [µM] | TGI (SF-295 CNS) [µM] | TGI (RXF 393 renal) [µM] | TGI (BT-549 breast) [µM] | GI50 (SW-620 colon) [µM] | GI50 (KM12 colon) [µM] | GI50 (BT-549 breast) [µM] | GI50 (SK-MEL-2 melanoma) [µM] | GI50 (M14 melanoma) [µM] | GI50 (NCI/ADR-RES ovarian) [µM] | GI50 (SF-295 CNS) [µM] | GI50 (RXF 393 renal) [µM]
CC(=O)O/N=C1\C=Cc2c(no[n+]2[O-])C1=O | 9.04 | 27.6 | 33.7 | 32.7 | 33.2 | 68.1 | 48.5 | > 100 | 28.5 | – | – | – | – | – | – | – | – | –
O=C1OS2(OC(=O)c3cccc4cccc2c34)c2ccccc21 (stereo not given) | > 100 | > 100 | > 100 | > 100 | > 100 | > 100 | – | > 100 | > 100 | > 100 | – | – | – | – | – | – | – | –
COc1ccc(NC(=O)c2cc(NC(=O)/C=C/c3ccccc3)c(OC)c(OC)c2)cc1 | > 100 | > 100 | > 100 | 7.27 | > 100 | > 100 | > 100 | > 100 | > 100 | – | – | – | – | – | – | – | – | –
C(=C/c1ccc2nc(-c3ccc(/C=C/C=N/NC4=NCCCN4)cc3)cn2c1)/C=N/NC1=NCCCN1 | – | > 100 | > 100 | > 100 | > 100 | 51.7 | > 100 | > 100 | 48.6 | > 100 | – | – | – | – | – | – | – | –
CS(=O)(=O)c1nc(-c2cc3c(c(S(C)(=O)=O)n2)CCC3)cc2c1CCC2 | > 100 | > 100 | > 100 | > 100 | > 100 | > 100 | – | > 100 | > 100 | > 100 | – | – | – | – | – | – | – | –
S=c1sc2ccccc2n1CN1CCN(Cc2ccccc2)CC1 | > 100 | > 100 | > 100 | > 100 | > 100 | > 100 | – | > 100 | > 100 | > 100 | – | – | – | – | – | – | – | –
CC1(C)OC2C(CO)OC(/N=C(\NC#N)Oc3ccccc3)C2O1 (stereo not given) | > 100 | > 100 | > 100 | – | > 100 | – | > 100 | > 100 | > 100 | – | – | – | – | – | – | – | – | –
O=C(/C=C/c1ccco1)c1ccc(Nc2ccnc3cc(Cl)ccc23)cc1 | > 100 | – | > 100 | > 100 | > 100 | > 100 | – | > 100 | > 100 | > 100 | 3.51 | 3.17 | > 100 | 76.7 | 70.7 | 75.8 | > 100 | 20.9
Cn1c(=O)c2[nH]c(Nc3ccccc3)nc2n(C)c1=O | > 10 | – | > 10 | – | > 10 | – | > 10 | > 10 | > 10 | – | – | – | – | – | – | – | – | –
CSCC[C@@H](NC(=O)[C@H](CC(C)C)NC(=O)C(Cc1cnc[nH]1)NC(=O)CNC(=O)[C@@H](NC(=O)[C@H](C)NC(=O)[C@H](Cc1cn(C=O)c2ccccc12)NC(=O)[C@H](CCC(N)=O)NC(=O)[C@@H](N)CC(N)=O)C(C)C)C(N)=O (stereo not given in full) | > 100 | > 100 | > 100 | > 100 | – | > 100 | – | > 100 | > 100 | – | – | – | – | – | – | – | – | –
O=c1[nH]c(=O)n(COCCO)cc1-c1ccccc1 | > 100 | > 100 | > 100 | > 100 | > 100 | > 100 | > 100 | > 100 | – | – | – | – | – | – | – | – | – | –
CCCCc1ccc(Nc2nc(N)c3[nH]cnc3n2)cc1 | 63.6 | 32.3 | 36.5 | 57.6 | 88 | 37.2 | – | 68.8 | – | 47.9 | – | – | – | – | – | – | – | –
C=CCCCN1C(=O)C2C3c4ccccc4C(C=O)(c4ccccc43)C2C1=O (stereo not given) | 27.1 | 14.9 | 21.6 | 59.5 | – | 58.2 | 18.1 | 26.1 | – | – | – | – | – | – | – | – | – | –
C/C(=N\NC(=S)N/N=C(\C)c1ccccn1)c1ccccn1 | > 100 | > 100 | > 100 | – | 4.88 | 27 | > 100 | > 100 | – | > 100 | – | – | – | – | – | – | – | –
O=C(O)CC(Cc1ccccc1)C(=O)O (stereo not given) | > 100 | > 100 | > 100 | > 100 | > 100 | > 100 | – | > 100 | > 100 | > 100 | – | – | – | – | – | – | – | –
CC(C)OCC(O)COc1cc(=O)oc2ccccc12 (stereo not given) | > 100 | > 100 | > 100 | > 100 | > 100 | > 100 | > 100 | > 100 | – | – | – | – | – | – | – | – | – | –
CC12CCC3=C(CSC4=C3CSc3ccccc34)C1=CCCC2=O (stereo not given) | > 100 | > 100 | > 100 | > 100 | > 100 | – | > 100 | – | > 100 | – | – | – | – | – | – | – | – | –
COc1c2c(cc3oc(=O)ccc13)OC(C)(C)C=C2 | 84.6 | 40.8 | 48.5 | 51.1 | 48.4 | 70.6 | 44.6 | > 125 | – | 70.2 | – | – | – | – | – | – | – | –
CN(CCN(C)Cc1ccc(Cl)c(Cl)c1)CCN1CCCC1 | > 100 | > 57.8 | > 100 | 59.9 | > 54.4 | > 100 | – | > 88.7 | 99.9 | > 100 | – | – | – | – | – | – | – | –
O=C(OCc1ccccc1[N+](=O)[O-])N1c2ccccc2[C@@]23O[C@]24CCC[C@H]3C#C/C=C\C#C[C@H]14 | > 100 | > 100 | > 100 | > 100 | > 100 | > 100 | – | > 100 | > 100 | > 100 | – | – | – | – | – | – | – | –
CO/C=C(/C(=O)OC)c1ccccc1[C@H]1C[C@@H]1c1ccc(OC)cc1 | – | 44.5 | 68.8 | 32.1 | 51.6 | 52.6 | 45.4 | 46.3 | > 100 | 46.6 | – | – | – | – | – | – | – | –
COC(=O)[C@@]12CC3CN(Cc4c1[nH]c1ccccc41)C2CC3=O | > 100 | > 100 | > 100 | > 100 | > 100 | > 100 | – | > 100 | > 100 | > 100 | – | – | – | – | – | – | – | –
